Source: patent publication US20230348376A1 (TEIJIN PHARMA LIMITED, priority 2020, published 2023)

Test system: rat oligodendrocyte progenitor cells
Assay: Promotive activity of rat oligodendrocyte progenitor cell differentiation-2 (immunostaining of MBP)
Assay type: cell-based
Details: vitamin D derivative 2 μM, T3 30 nM, 4 days
Protocol: The promotive activity of oligodendrocyte progenitor cell (OPC) differentiation of the vitamin D derivatives was evaluated by immunostaining of MBP.
Subsequently, oligodendrocyte progenitor cell separation medium was added to the flask, and the mixture was similarly shaken for about 22 hours (37° C., 200 rpm), and the supernatant was collected to prepare oligodendrocyte progenitor cells.

## C=C1/C(=C\C=C2/CCC[C@]3(C)[C@@H]([C@H](C)CN4CCN(C)C[C@H]4C)CC[C@@H]23)C[C@@H](O)C[C@@H]1O [Compound F012, (1R,3S,Z)-5-(2-((1R,3aS,7aR,E)-1-((S)-1-((R)-2,4-dimethylpiperazin-1-yl)propan-2-yl)-7a-methyloctahydro-4H-inden-4-ylidene)ethylidene)-4-methylenecyclohexane-1,3-diol]
Test 7
  Mean (number of MBP-positive cells/number of Hoechst33342-positive cells): 0.23

## C=C1/C(=C\C=C2/CCC[C@]3(C)[C@@H]([C@H](C)CN4CCC[C@@H]4C(C)(C)O)CC[C@@H]23)C[C@@H](O)C[C@@H]1O [Compound F013, (1R,3S,Z)-5-(2-((1R,3aS,7aR,E)-1-((S)-1-((R)-2-(2-hydroxypropan-2-yl)pyrrolidin-1-yl)propan-2-yl)-7a-methyloctahydro-4H-inden-4-ylidene)ethylidene)-4-methylenecyclohexane-1,3-diol]
Test 9
  Mean (number of MBP-positive cells/number of Hoechst33342-positive cells): 0.31

## C=C1/C(=C\C=C2/CCC[C@]3(C)[C@@H]([C@H](C)CN4CCC[C@H]4C(C)(C)O)CC[C@@H]23)C[C@@H](O)C[C@@H]1O [Compound F014, (1R,3S,Z)-5-(2-((1R,3aS,7aR,E)-1-((S)-1-((S)-2-(2-hydroxypropan-2-yl)pyrrolidin-1-yl)propan-2-yl)-7a-methyloctahydro-4H-inden-4-ylidene)ethylidene)-4-methylenecyclohexane-1,3-diol]
Test 8
  Mean (number of MBP-positive cells/number of Hoechst33342-positive cells): 0.29

## C=C1/C(=C\C=C2/CCC[C@]3(C)[C@@H]([C@H](C)CN4CCC[C@@H]4C(C)(C)OC)CC[C@@H]23)C[C@@H](O)C[C@@H]1O [Compound F015, (1R,3S,Z)-5-(2-((1R,3aS,7aR,E)-1-((S)-1-((R)-2-(2-methoxypropan-2-yl)pyrrolidin-1-yl)propan-2-yl)-7a-methyloctahydro-4H-inden-4-ylidene)ethylidene)-4-methylenecyclohexane-1,3-diol]
Test 8
  Mean (number of MBP-positive cells/number of Hoechst33342-positive cells): 0.35

## C=C1/C(=C\C=C2/CCC[C@]3(C)[C@@H]([C@H](C)CN4CCC[C@H]4C(C)(C)OC)CC[C@@H]23)C[C@@H](O)C[C@@H]1O [Compound F016, (1R,3S,Z)-5-(2-((1R,3aS,7aR,E)-1-((S)-1-((S)-2-(2-methoxypropan-2-yl)pyrrolidin-1-yl)propan-2-yl)-7a-methyloctahydro-4H-inden-4-ylidene)ethylidene)-4-methylenecyclohexane-1,3-diol]
Test 8
  Mean (number of MBP-positive cells/number of Hoechst33342-positive cells): 0.32

## C[C@H](CN1CCCC[C@@H]1C)[C@H]1CC[C@H]2/C(=C/C=C3C[C@@H](O)C[C@H](O)C3)CCC[C@]12C [Compound G001, (1R,3R)-5-(2-((1R,3aS,7aR,E)-7a-methyl-1-((S)-1-((S)-2-methylpiperidin-1-yl)propan-2-yl)octahydro-4H-inden-4-ylidene)ethylidene)cyclohexane-1,3-diol]
Test 3
  Mean (number of MBP-positive cells/number of Hoechst33342-positive cells): 0.34

## C[C@H](CN1CCCC[C@H]1C)[C@H]1CC[C@H]2/C(=C/C=C3C[C@@H](O)C[C@H](O)C3)CCC[C@]12C [Compound G002, (1R,3R)-5-(2-((1R,3aS,7aR,E)-7a-methyl-1-((S)-1-((R)-2-methylpiperidin-1-yl)propan-2-yl)octahydro-4H-inden-4-ylidene)ethylidene)cyclohexane-1,3-diol]
Test 3
  Mean (number of MBP-positive cells/number of Hoechst33342-positive cells): 0.33

## C[C@H](CN1CCCCC1(C)C)[C@H]1CC[C@H]2/C(=C/C=C3C[C@@H](O)C[C@H](O)C3)CCC[C@]12C [Compound G003, (1R,3R)-5-(2-((1R,3aS,7aR,E)-1-((S)-1-(2,2-dimethylpiperidin-1-yl)propan-2-yl)-7a-methyloctahydro-4H-inden-4-ylidene)ethylidene)cyclohexane-1,3-diol]
Test 3
  Mean (number of MBP-positive cells/number of Hoechst33342-positive cells): 0.47

## C[C@H](CN1CCOCC12CC2)[C@H]1CC[C@H]2/C(=C/C=C3C[C@@H](O)C[C@H](O)C3)CCC[C@]12C [Compound G007, (1R,3R)-5-(2-((1R,3aS,7aR,E)-1-((S)-1-(7-oxa-4-azaspiro[2.5]octan-4-yl)propan-2-yl)-7a-methyloctahydro-4H-inden-4-ylidene)ethylidene)cyclohexane-1,3-diol]
Test 4
  Mean (number of MBP-positive cells/number of Hoechst33342-positive cells): 0.34

## C[C@H](CN1CCOC[C@@H]1C1CC1)[C@H]1CC[C@H]2/C(=C/C=C3C[C@@H](O)C[C@H](O)C3)CCC[C@]12C [Compound G008, (1R,3R)-5-(2-((1R,3aS,7aR,E)-1-((S)-1-((S)-3-cyclopropylmorpholino)propan-2-yl)-7a-methyloctahydro-4H-inden-4-ylidene)ethylidene)cyclohexane-1,3-diol]
Test 5
  Mean (number of MBP-positive cells/number of Hoechst33342-positive cells): 0.36

## C[C@H](CN1CCN(C)C[C@@H]1C)[C@H]1CC[C@H]2/C(=C/C=C3C[C@@H](O)C[C@H](O)C3)CCC[C@]12C [Compound G011, (1R,3R)-5-(2-((1R,3aS,7aR,E)-1-((S)-1-((S)-2,4-dimethylpiperazin-1-yl)propan-2-yl)-7a-methyloctahydro-4H-inden-4-ylidene)ethylidene)cyclohexane-1,3-diol]
Test 5
  Mean (number of MBP-positive cells/number of Hoechst33342-positive cells): 0.22

## C[C@H](CN1CCN(C)C[C@H]1C)[C@H]1CC[C@H]2/C(=C/C=C3C[C@@H](O)C[C@H](O)C3)CCC[C@]12C [Compound G012, (1R,3R)-5-(2-((1R,3aS,7aR,E)-1-((S)-1-((R)-2,4-dimethylpiperazin-1-yl)propan-2-yl)-7a-methyloctahydro-4H-inden-4-ylidene)ethylidene)cyclohexane-1,3-diol]
Test 5
  Mean (number of MBP-positive cells/number of Hoechst33342-positive cells): 0.22

## C[C@H](CN1CCC[C@@H]1C(C)(C)O)[C@H]1CC[C@H]2/C(=C/C=C3C[C@@H](O)C[C@H](O)C3)CCC[C@]12C [Compound G013, (1R,3R)-5-(2-((1R,3aS,7aR,E)-1-((S)-1-((R)-2-(2-hydroxypropan-2-yl)pyrrolidin-1-yl)propan-2-yl)-7a-methyloctahydro-4H-inden-4-ylidene)ethylidene)cyclohexane-1,3-diol]
Test 6
  Mean (number of MBP-positive cells/number of Hoechst33342-positive cells): 0.55

## C[C@H](CN1CCC[C@H]1C(C)(C)O)[C@H]1CC[C@H]2/C(=C/C=C3C[C@@H](O)C[C@H](O)C3)CCC[C@]12C [Compound G014, (1R,3R)-5-(2-((1R,3aS,7aR,E)-1-((S)-1-((S)-2-(2-hydroxypropan-2-yl)pyrrolidin-1-yl)propan-2-yl)-7a-methyloctahydro-4H-inden-4-ylidene)ethylidene)cyclohexane-1,3-diol]
Test 6
  Mean (number of MBP-positive cells/number of Hoechst33342-positive cells): 0.44

## COC(C)(C)[C@H]1CCCN1C[C@@H](C)[C@H]1CC[C@H]2/C(=C/C=C3C[C@@H](O)C[C@H](O)C3)CCC[C@]12C [Compound G015, (1R,3R)-5-(2-((1R,3aS,7aR,E)-1-((S)-1-((R)-2-(2-methoxypropan-2-yl)pyrrolidin-1-yl)propan-2-yl)-7a-methyloctahydro-4H-inden-4-ylidene)ethylidene)cyclohexane-1,3-diol]
Test 6
  Mean (number of MBP-positive cells/number of Hoechst33342-positive cells): 0.52

## COC(C)(C)[C@@H]1CCCN1C[C@@H](C)[C@H]1CC[C@H]2/C(=C/C=C3C[C@@H](O)C[C@H](O)C3)CCC[C@]12C [Compound G016, (1R,3R)-5-(2-((1R,3aS,7aR,E)-1-((S)-1-((S)-2-(2-methoxypropan-2-yl)pyrrolidin-1-yl)propan-2-yl)-7a-methyloctahydro-4H-inden-4-ylidene)ethylidene)cyclohexane-1,3-diol]
Test 7
  Mean (number of MBP-positive cells/number of Hoechst33342-positive cells): 0.37

## C[C@H](CCN1CCCC[C@@H]1C)[C@H]1CC[C@H]2/C(=C/C=C3C[C@@H](O)C[C@H](O)C3)CCC[C@]12C [Compound G017, (1R,3R)-5-(2-((1R,3aS,7aR,E)-7a-methyl-1-((R)-4-((S)-2-methylpiperidin-1-yl)butan-2-yl)octahydro-4H-inden-4-ylidene)ethylidene)cyclohexane-1,3-diol]
Test 6
  Mean (number of MBP-positive cells/number of Hoechst33342-positive cells): 0.52

## C[C@H](CCN1CCCC[C@H]1C)[C@H]1CC[C@H]2/C(=C/C=C3C[C@@H](O)C[C@H](O)C3)CCC[C@]12C [Compound G018, (1R,3R)-5-(2-((1R,3aS,7aR,E)-7a-methyl-1-((R)-4-((R)-2-methylpiperidin-1-yl)butan-2-yl)octahydro-4H-inden-4-ylidene)ethylidene)cyclohexane-1,3-diol]
Test 6
  Mean (number of MBP-positive cells/number of Hoechst33342-positive cells): 0.48

## C=C1[C@H](O)CC(=C/C=C2\CCC[C@]3(C)[C@@H]([C@H](C)CN4CCCC[C@@H]4C)CC[C@@H]23)C[C@H]1O [Compound H001, (1R,3R)-5-(2-((1R,3aS,7aR,E)-7a-methyl-1-((S)-1-((S)-2-methylpiperidin-1-yl)propan-2-yl)octahydro-4H-inden-4-ylidene)ethylidene)-2-methylenecyclohexane-1,3-diol]
Test 7
  Mean (number of MBP-positive cells/number of Hoechst33342-positive cells): 0.48

## C=C1[C@H](O)CC(=C/C=C2\CCC[C@]3(C)[C@@H]([C@H](C)CN4CCCC[C@H]4C)CC[C@@H]23)C[C@H]1O [Compound H002, (1R,3R)-5-(2-((1R,3aS,7aR,E)-7a-methyl-1-((S)-1-((R)-2-methylpiperidin-1-yl)propan-2-yl)octahydro-4H-inden-4-ylidene)ethylidene)-2-methylenecyclohexane-1,3-diol]
Test 9
  Mean (number of MBP-positive cells/number of Hoechst33342-positive cells): 0.39
